Results published in US20240116857A1 (St. Louis University, priority 2022, published 2024).
Like-named read-outs stand apart in the source and are kept apart here.

What was measured:
[1] = system: Acinetobacter baumannii ATCC17978 Δ3-Pore; test: MIC, permeabilized bacteria; format: cell-based
[2] = system: Pseudomonas aeruginosa 515; test: MIC, 2-fold broth dilution; format: cell-based; conditions: WT, clinical non MDR
[3] = system: Acinetobacter baumannii Ab5075 ΔIJK; test: MIC, permeabilized bacteria; format: cell-based
[4] = system: Pseudomonas aeruginosa BAA 2108; test: MIC, 2-fold broth dilution; format: cell-based; conditions: BAA2108
[5] = system: Klebsiella oxytoca ATCC700324 Pore; test: MIC, permeabilized bacteria; format: cell-based
[6] = system: Burkholderia thailandensis Δ2-Pore; test: microbe, parasite or virus in culture; format: cell-based
[7] = system: Acinetobacter baumannii Ab5075; test: MIC, 2-fold broth dilution; format: cell-based
Yersinia pestis KIM6+ = test: microbe, parasite or virus in culture; format: cell-based
[8] = system: Pseudomonas aeruginosa PAO1 Δ6-Pore; test: MIC, permeabilized bacteria; format: cell-based
[9] = system: Pseudomonas aeruginosa MP 2019; test: MIC, 2-fold broth dilution; format: cell-based; conditions: MP2019, WT, MDR
[10] = system: Burkholderia thailandensis; test: microbe, parasite or virus in culture; format: cell-based
[11] = system: Acinetobacter baumannii AYE ΔB ΔIJK; test: MIC, permeabilized bacteria; format: cell-based
[12] = system: Staphylococcus aureus ATCC 700787; test: MIC, 2-fold broth dilution; format: cell-based; conditions: ATCC700787
[13] = system: Staphylococcus aureus ATCC 25923; test: MIC, 2-fold broth dilution; format: cell-based; conditions: ATCC25923, non MDR
E. coli BW25113 = test: MIC, 2-fold broth dilution, E. coli BW25113; format: cell-based, Escherichia coli; conditions: Escherichia coli, E. coli BW25113
[14] = system: Klebsiella oxytoca ATCC700324; test: MIC, 2-fold broth dilution; format: cell-based; conditions: WT
Method: (§1) Luria-Bertani (LB) broth (10 g of Bacto tryptone, 5 g of yeast extract, and 5 g of NaCl per liter; pH 7.0) was used for bacterial growth. The bacterial strains were inoculated overnight at 37° C. Cells were 1:100 subcultured into a fresh 30-ml volume of LB medium and grown at 37° C. to an optical density at 600 nm (OD600) of 0.3. When appropriate, the cells cultures were supplemented with 0.1% L-arabinose or 0.1 mM isopropyl β-d-1-thiogalactopyranoside (IPTG), to induce expression of the “Pore” protein. The cells were cultured up to OD600 of 1.0. The test compounds were dissolved in dimethylsulfoxide (DMSO) to make the final 10 mM stock solution. The minimal inhibitory concentrations (MIC) were determined using the 2-fold broth dilution method (1). The OD600 was measured using a Tecan Spark 10 M microplate reader.

[15] = system: Acinetobacter baumannii ATCC17978; test: MIC, 2-fold broth dilution; format: cell-based; conditions: WT
Method: as §1

[16] = system: Pseudomonas aeruginosa PAO1; test: MIC, 2-fold broth dilution; format: cell-based; conditions: WT
Method: as §1

[17] = system: Klebsiella pneumoniae ATCC13883; test: MIC, 2-fold broth dilution; format: cell-based; conditions: WT
Method: as §1

[18] = system: Klebsiella aerogenes ATCC13048; test: MIC, 2-fold broth dilution; format: cell-based; conditions: WT
Method: as §1

[19] = system: Enterobacter cloacae ATCC13047; test: MIC, 2-fold broth dilution; format: cell-based; conditions: WT
Method: as §1

[20] = system: Pseudomonas aeruginosa 462; test: MIC, 2-fold broth dilution; format: cell-based; conditions: WT, clinical non MDR
[21] = Cytotoxicity assay (CellTiter AQueous One Solution, MTS); format: cell-based; conditions: human, HEK293 cells, 24 h incubation
Method: Cytotoxicity of the compounds was evaluated using the CellTiter AQueous One Solution Cell Proliferation Assay (MTS; Promega) as previously described (2). HEK293 cells were incubated with a 2-fold serially diluted compounds for 24 h at 37° C. with 5% CO2, followed by addition of 20 μL of CellTiter AQueous and further incubated for 4 h at 37° C. The absorbance at 490 nm was recorded using a Tecan Spark 10 M plate reader. All measurements were done in three replicas. The growth curves were then fitted to a sigmoidal equation to determine the cytotoxicity concentration CC50.

[22] = system: Acinetobacter baumannii AYE; test: MIC, 2-fold broth dilution; format: cell-based
[23] = system: Pseudomonas aeruginosa 273; test: MIC, 2-fold broth dilution; format: cell-based; conditions: WT, clinical non MDR
[24] = asterisk in column 1-10, read-out: MIC, μM 1-10

SMILES	MIC [1] [µM]	MIC [2] [µM]	MIC [3] [µM]	MIC [4] [µM]	MIC [5] [µM]	MIC [6] [µM]	MIC [7] [µM]	MIC (Yersinia pestis KIM6+) [µM]	MIC [8] [µM]	MIC [9] [µM]	MIC [10] [µM]	MIC [11] [µM]	MIC [12] [µM]	MIC [13] [µM]	MIC [14] [µM]	MIC [15] [µM]	MIC [16] [µM]	MIC [17] [µM]	MIC [18] [µM]	MIC [19] [µM]	further results
C[n+]1ccc(Nc2ccc(NC(=O)c3ccc(-c4ccc(C(=O)Nc5ccc(Nc6cc[n+](C)cc6)cc5)cc4)cc3)cc2)cc1 [Example 17, 4,4′-(((([1,1′-biphenyl]-4,4′-dicarbonyl)bis(azanediyl))bis(4,1-phenylene))bis(azanediyl))bis(1-methylpyridin-1-ium)]	0.8	> 100	6.2	> 100	> 100	0.8	12.5	100	0.2	> 100	> 100	0.2	0.4	0.8	> 100	6.2	6.2	3.1	6.2	50	MIC (E. coli BW25113; asterisk in column <1, read-out: MIC, μM <1): < 1 µM; MIC [20]: 12.5 µM; CC50 at 24 h [21]: > 1000 µM; MIC [22]: > 100 µM; MIC [23]: 12.5 µM
C[n+]1ccc(Nc2ccc(NC(=O)c3ccc(C(=O)Nc4ccc(Nc5cc[n+](C)cc5)cc4)c(Cl)c3)cc2)cc1 [Example 20, 4,4′-((((2-chloroterephthaloyl)bis(azanediyl))bis(4,1-phenylene))bis(azanediyl))bis(1-methylpyridin-1-ium)]	0.8	25	25	> 100	25	6.2	25	1.6	0.2	12.5	> 100	0.2	1.6	0.8	25	3.1	25	12.5	12.5	12.5	MIC (E. coli BW25113; [24]): 1 to 10 µM; MIC [20]: 12.5 µM; CC50 at 24 h [21]: > 1000 µM; MIC [22]: 25 µM; MIC [23]: 12.5 µM
C[n+]1ccc(Nc2ccc(NC(=O)c3ccc(C(=O)Nc4ccc(Nc5cc[n+](C)cc5)cc4)c(OC(F)(F)F)c3)cc2)cc1 [Example 44, 4,4′-((((2-(trifluoromethoxy)terephthaloyl)bis(azanediyl))bis(4,1-phenylene))bis(azanediyl))bis(1-methylpyridin-1-ium)]	0.4	50	12.5	100	50	6.2	25	1.6	0.4	25	> 100	0.1	0.2	0.4	100	3.1	25	25	50	25	MIC (E. coli BW25113; [24]): 1 to 10 µM; MIC [20]: 50 µM; CC50 at 24 h [21]: 290 µM; MIC [22]: 25 µM; MIC [23]: 25 µM
